In assay [1] the target is T1, Histone deacetylase 8 (Schistosoma mansoni) (UniProt A5H660).
T1 sequence (whole entry): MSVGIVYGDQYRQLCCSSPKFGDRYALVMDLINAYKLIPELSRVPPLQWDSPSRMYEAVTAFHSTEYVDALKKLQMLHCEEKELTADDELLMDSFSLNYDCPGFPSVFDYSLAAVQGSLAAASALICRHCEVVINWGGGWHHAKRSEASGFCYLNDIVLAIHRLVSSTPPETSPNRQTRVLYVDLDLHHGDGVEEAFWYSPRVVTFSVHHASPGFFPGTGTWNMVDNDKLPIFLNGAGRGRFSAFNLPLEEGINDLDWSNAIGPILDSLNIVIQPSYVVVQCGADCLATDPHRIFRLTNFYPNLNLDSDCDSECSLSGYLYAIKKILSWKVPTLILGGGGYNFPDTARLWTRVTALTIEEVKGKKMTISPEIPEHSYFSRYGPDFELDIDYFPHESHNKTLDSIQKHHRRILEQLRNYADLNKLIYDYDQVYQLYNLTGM
The assay can be described thus: Inhibition of Schistosoma mansoni KDAC8 at 30 uM using (FAM)-labeled peptide as substrate after 60 mins by microfluidic assay.

For a further assay, the target named is T2, Histone deacetylase 8 (Schistosoma mansoni, UniProt A5H660).
T2 sequence (A5H660 whole entry): T1 sequence (whole entry)
Briefly: Inhibition of Schistosoma mansoni KDAC8 using (FAM)-labeled peptide as substrate after 60 mins by microfluidic assay. Particulars: read-out: IC50.

The source made the active and inactive calls. No cut-off for these calls is given here. A value given as a limit tells only on which side of the number the result lay.

This passage reports inhibition and IC50 results from ChEMBL document CHEMBL4014283, “Structural insights of SmKDAC8 inhibitors: Targeting Schistosoma epigenetics through a combined structure-based 3D QSAR, in vitro and synthesis strategy” (Bioorg Med Chem, 2017).

The term inhibition denotes the drop in the measured response relative to a control, in per cent. Usually IC50 stands for the midpoint of a concentration-inhibition curve.

Molecule `Cc1c(C)c(S(=O)(=O)NC(=N)NCCC[C@@H]2N=C(c3ccccc3)c3ccccc3N(CCCCC(=O)O)C2=O)c(C)c2c1OC(C)(C)C2` displayed an inhibition in assay [1] of 0%. The IC50 on Histone deacetylase 8 was over 30 µM.

Take `O=C1Nc2ccccc2C(c2ccccc2)=N[C@H]1Cc1cn(C(c2ccccc2)(c2ccccc2)c2ccccc2)cn1`: the inhibition in assay [1] is 9.68%. Moreover, on Histone deacetylase 8, the IC50 was over 30 µM.

Turning to `CC(C)[C@@H]1N=C(c2ccccc2)c2ccccc2N(CCCCC(=O)O)C1=O`, the inhibition in assay [1] was 0%. The IC50 at Histone deacetylase 8 was over 30 µM.

For `O=C(CCCCN1C(=O)[C@H](CCC(=O)NC(c2ccccc2)(c2ccccc2)c2ccccc2)N=C(c2ccccc2)c2ccccc21)NO`, the inhibition in assay [1] is 32.1%. At Histone deacetylase 8, the IC50 is over 30 µM.

As for `CC(C)[C@@H]1NC(=O)[C@H]2CCCN2C(=O)[C@@H]2CCCN2C(=O)C[C@H](C(=O)NCCCC(=O)NO)NC1=O`, in assay [1], the inhibition was under 26%. The IC50 at Histone deacetylase 8 was over 30 µM.

As for `CC(C)C[C@@H]1N=C(c2ccccc2)c2ccccc2N(CCCCC(=O)NO)C1=O`, the inhibition in assay [1] amounted to 23.1%. Moreover, the IC50 at Histone deacetylase 8 was over 30 µM.

`O=C(O)CCCCN1C(=O)[C@H](CC(=O)O)N=C(c2ccccc2)c2ccccc21` yielded an inhibition in assay [1] of 0%. Besides, the IC50 on Histone deacetylase 8 was over 30 µM.

For the molecule `COC(=O)CCCCN1C(=O)[C@H](CC(=O)OC(C)(C)C)N=C(c2ccccc2)c2ccccc21`, the inhibition in assay [1] was determined as 0%. For the same molecule, the IC50 on Histone deacetylase 8 is over 30 µM.

In assay [1], `COC(=O)CCCCN1C(=O)[C@H](C(C)C)N=C(c2ccccc2)c2ccccc21` showed an inhibition of 0%. In addition, at Histone deacetylase 8, the IC50 was over 30 µM.

For the molecule `O=C(CCCCN1C(=O)[C@H](Cc2cc3ccccc3[nH]2)N=C(c2ccccc2)c2ccccc21)NO`, the inhibition in assay [1] was found to be 19.7%. Besides, the IC50 at Histone deacetylase 8 was over 30 µM.

Molecule `CC(C)(C)OC(=O)NCCCC[C@@H]1N=C(c2ccccc2)c2ccccc2N(CCCCC(=O)NO)C1=O` showed an inhibition in assay [1] of 25.1%. On Histone deacetylase 8, the IC50 is over 30 µM.

Turning to `O=C(CCCCN1C(=O)[C@@H](CS)N=C(c2ccccc2)c2ccccc21)NO`, in assay [1], the inhibition stood at 57%. Further, the IC50 on Histone deacetylase 8 was 20.9 µM.

`COC(=O)CCCCN1C(=O)[C@H](CC(=O)NC(c2ccccc2)(c2ccccc2)c2ccccc2)N=C(c2ccccc2)c2ccccc21` registered an inhibition in assay [1] of 2.19%. For the same molecule, the IC50 at Histone deacetylase 8 is over 30 µM.

For the molecule `CC(C)(C)OC(=O)CC[C@@H]1N=C(c2ccccc2)c2ccccc2N(CCCCC(=O)O)C1=O`, the inhibition in assay [1] was determined as 0%. Also, the 50% inhibitory concentration (IC50) at Histone deacetylase 8 was over 30 µM.

Take `CC(C)[C@@H]1NC(=O)[C@H]2CCCN2C(=O)[C@@H]2CCCN2C(=O)C[C@@H](C(=O)NCCCC(=O)NO)NC1=O`: in assay [1], the inhibition fell in the range of 21 to 31.9%. The IC50 on Histone deacetylase 8 is over 30 µM.

In turn, `O=C(CCCNC(=O)C[C@@H]1N=C(c2ccccc2)c2ccccc2NC1=O)NO` gave an inhibition in assay [1] of 70.3%. Further, the half-inhibitory concentration (IC50) at Histone deacetylase 8 amounted to 12.8 µM.

Regarding `CC(C)(C)Oc1ccc(C[C@@H]2N=C(c3ccccc3)c3ccccc3N(CCCCC(=O)NO)C2=O)cc1`, the inhibition in assay [1] is 74%. Further, the IC50 at Histone deacetylase 8 stood at 10.3 µM.

For `CC(C)C[C@@H]1N=C(c2ccccc2)c2ccccc2NC1=O`, in assay [1], the inhibition came out at 0%. Besides, the IC50 on Histone deacetylase 8 is over 30 µM.

With `CC(C)(C)OC(=O)C[C@@H]1N=C(c2ccccc2)c2ccccc2N(CCCCC(=O)NO)C1=O`, in assay [1], the inhibition came out at 38.8%. Also, the IC50 at Histone deacetylase 8 is over 30 µM.

As to `NCCCC[C@@H]1N=C(c2ccccc2)c2ccccc2N(CCCCC(=O)NO)C1=O`, the inhibition in assay [1] stood at 4.32%. The IC50 at Histone deacetylase 8 was over 30 µM.

Turning to `CC(OCc1ccccc1)[C@@H]1N=C(c2ccccc2)c2ccccc2NC1=O` (single isomer, unassigned), in assay [1], the inhibition was 0%. Also, the IC50 at Histone deacetylase 8 was over 30 µM.

`Cc1c(C)c(S(=O)(=O)NC(=N)NCCC[C@@H]2N=C(c3ccccc3)c3ccccc3N(CCCCC(=O)NO)C2=O)c(C)c2c1OC(C)(C)C2`: the inhibition in assay [1] was determined as 0%. In addition, at Histone deacetylase 8, the half-inhibitory concentration (IC50) was over 30 µM.

In assay [1], `O=C(C[C@@H]1N=C(c2ccccc2)c2ccccc2NC1=O)NO` showed an inhibition of 0%. For the same molecule, the IC50 on Histone deacetylase 8 was over 30 µM.

In the case of `O=C(O)CCCCN1C(=O)[C@H](CC(=O)NC(c2ccccc2)(c2ccccc2)c2ccccc2)N=C(c2ccccc2)c2ccccc21`, the inhibition in assay [1] turned out to be 0%. The IC50 at Histone deacetylase 8 was over 30 µM.

Take `CC(C)(C)OC(=O)CC[C@@H]1N=C(c2ccccc2)c2ccccc2N(CCCCC(=O)NO)C1=O`: in assay [1], the inhibition came out at 24.9%. For the same molecule, the IC50 on Histone deacetylase 8 was over 30 µM.

Molecule `O=C(CCCCN1C(=O)[C@H](Cc2ccc(O)cc2)N=C(c2ccccc2)c2ccccc21)NO` gave an inhibition in assay [1] of 0%. Also, the IC50 at Histone deacetylase 8 was over 30 µM.

As for `C[C@@H]1N=C(c2ccccc2)c2ccccc2N(CCCCC(=O)NO)C1=O`, in assay [1], the inhibition turned out to be 16.9%. Further, the IC50 at Histone deacetylase 8 is over 30 µM.

For `Nc1ccccc1NC(=O)c1ccc(CNC(=O)OCc2cccnc2)cc1` [ENTINOSTAT], the inhibition result in assay [1] was “inactive”. Further, the IC50 at Histone deacetylase 8 is over 30 µM.

Turning to `CC(C)(C)OC(=O)CC[C@H]1N=C(c2ccccc2)c2ccccc2NC1=O`, the inhibition in assay [1] was found to be 12.3%. Besides, the IC50 at Histone deacetylase 8 was over 30 µM.

For `COC(=O)CCCCN1C(=O)[C@H](CCCCNC(=O)OC(C)(C)C)N=C(c2ccccc2)c2ccccc21`, in assay [1], the inhibition was 0%. Further, at Histone deacetylase 8, the IC50 was over 30 µM.

In turn, `CCC(C)[C@@H]1N=C(c2ccccc2)c2ccccc2N(CCCCC(=O)NO)C1=O` (single isomer, unassigned) returned an inhibition in assay [1] of 11.7%. Also, the IC50 at Histone deacetylase 8 is over 30 µM.

As to `CC(C)(C)OC(=O)C[C@@H]1N=C(c2ccccc2)c2ccccc2NC1=O`, the inhibition in assay [1] was 0%. For the same molecule, the IC50 on Histone deacetylase 8 was over 30 µM.

`COC(=O)CCCCN1C(=O)[C@H](CCC(=O)NC(c2ccccc2)(c2ccccc2)c2ccccc2)N=C(c2ccccc2)c2ccccc21` gave an inhibition in assay [1] of 0%. Further, the IC50 on Histone deacetylase 8 was over 30 µM.

In assay [1], `C[C@@H](OCc1ccccc1)[C@@H]1N=C(c2ccccc2)c2ccccc2N(CCCCC(=O)NO)C1=O` displayed an inhibition of 20.5%. At Histone deacetylase 8, the IC50 is over 30 µM.

With `CC(C)(C)OC(=O)n1c(C[C@@H]2N=C(c3ccccc3)c3ccccc3N(CCCCC(=O)NO)C2=O)cc2ccccc21`, the inhibition in assay [1] was found to be 12.5%. For the same molecule, the IC50 at Histone deacetylase 8 was over 30 µM.

Turning to `COC(=O)CCCCN1C(=O)[C@H](Cc2cncn2C(c2ccccc2)(c2ccccc2)c2ccccc2)N=C(c2ccccc2)c2ccccc21`, in assay [1], the inhibition turned out to be 2.5%. On Histone deacetylase 8, the IC50 was over 30 µM.

In assay [1], `O=C1Nc2ccccc2C(c2ccccc2)=N[C@H]1Cc1ccccc1` returned an inhibition of 0%. At Histone deacetylase 8, the 50% inhibitory concentration (IC50) is over 30 µM.

In the case of `O=C(CC[C@@H]1N=C(c2ccccc2)c2ccccc2NC1=O)NC(c1ccccc1)(c1ccccc1)c1ccccc1`, the inhibition in assay [1] amounted to 10.4%. On Histone deacetylase 8, the IC50 is over 30 µM.

As for `CCCCCCCC(=O)SCC/C=C/[C@@H]1CC(=O)NCc2nc(cs2)C2=N[C@@](C)(CS2)C(=O)N[C@@H](C(C)C)C(=O)O1` [LARGAZOLE], the inhibition in assay [1] amounted to 4%. At Histone deacetylase 8, the half-maximal inhibitory concentration (IC50) was over 30 µM.

Regarding `CC(C)[C@@H]1NC(=O)[C@@H]2CCCN2C(=O)[C@@H]2CCCN2C(=O)C[C@@H](C(=O)NCCCC(=O)NO)NC1=O`, the inhibition in assay [1] was found to be 32%. On Histone deacetylase 8, the IC50 was over 30 µM.

In the case of `O=C(CCCCN1C(=O)[C@H](Cc2cnc[nH]2)N=C(c2ccccc2)c2ccccc21)NO`, in assay [1], the inhibition stood at 4.11%. For the same molecule, at Histone deacetylase 8, the IC50 is over 30 µM.

`CC(C)(C)SC[C@H]1N=C(c2ccccc2)c2ccccc2N(CCCCC(=O)O)C1=O` gave an inhibition in assay [1] of 0%. Moreover, the IC50 on Histone deacetylase 8 is over 30 µM.

As for `COC(=O)CCCCN1C(=O)[C@H](Cc2cc3ccccc3n2C(=O)OC(C)(C)C)N=C(c2ccccc2)c2ccccc21`, the inhibition in assay [1] is 0%. Moreover, the IC50 at Histone deacetylase 8 is over 30 µM.

As for `CC(=O)SCC/C=C/[C@@H]1CC(=O)NCc2ccc(cc2)C2=N[C@@](C)(CS2)C(=O)N[C@@H](C(C)C)C(=O)O1`, the inhibition entry in assay [1] is “inactive”. Further, the IC50 at Histone deacetylase 8 is over 30 µM.

Molecule `O=C(O)CCCCN1C(=O)[C@H](CCC(=O)O)N=C(c2ccccc2)c2ccccc21` returned an inhibition in assay [1] of 0%. At Histone deacetylase 8, the IC50 was over 30 µM.

For the molecule `O=C(O)CCCCN1C(=O)CN=C(c2ccccc2)c2ccccc21`, the inhibition in assay [1] was found to be 0%. For the same molecule, at Histone deacetylase 8, the IC50 was over 30 µM.

As to `CC[C@H](C)[C@@H]1N=C(c2ccccc2)c2ccccc2N(CCCCC(=O)OC)C1=O`, the inhibition in assay [1] was 0%. Moreover, the IC50 at Histone deacetylase 8 was over 30 µM.

Take `COC(=O)CCCCN1C(=O)[C@H](CCSC)N=C(c2ccccc2)c2ccccc21`: in assay [1], the inhibition is 0%. In addition, on Histone deacetylase 8, the IC50 was over 30 µM.

For the molecule `NC(=O)CC[C@@H]1N=C(c2ccccc2)c2ccccc2N(CCCCC(=O)NO)C1=O`, the inhibition in assay [1] is 11.6%. Further, the IC50 on Histone deacetylase 8 is over 30 µM.

Regarding `C[C@@H]1N=C(c2ccccc2)c2ccccc2N(CCCCC(=O)O)C1=O`, the inhibition in assay [1] is 0%. The IC50 at Histone deacetylase 8 was over 30 µM.

In assay [1], `C[C@@H]1N=C(c2ccccc2)c2ccccc2NC1=O` registered an inhibition of 0%. At Histone deacetylase 8, the IC50 was over 30 µM.

In assay [1], `O=C(O)CCCCN1C(=O)[C@H](Cc2cncn2C(c2ccccc2)(c2ccccc2)c2ccccc2)N=C(c2ccccc2)c2ccccc21` displayed an inhibition of 0%. Also, the IC50 on Histone deacetylase 8 is over 30 µM.

As for `O=C(CCCCN1C(=O)[C@H](CO)N=C(c2ccccc2)c2ccccc21)NO`, the inhibition in assay [1] amounted to 0.46%. In addition, at Histone deacetylase 8, the half-inhibitory concentration (IC50) is over 30 µM.

`CC(C)(C)OC(=O)n1cc(C[C@@H]2N=C(c3ccccc3)c3ccccc3NC2=O)c2ccccc21` yielded an inhibition in assay [1] of 11.9%. For the same molecule, on Histone deacetylase 8, the IC50 was over 30 µM.
